Results from ChEMBL document CHEMBL1144467, “Effect of topical microbicides on infectious human immunodeficiency virus type 1 binding to epithelial cells” (2007).
The source made the active and inactive calls. The rule behind the calls is not given here.

What was measured:
[1] = test system: Human immunodeficiency virus 1; assay: Inhibition of HIV1 BaL binding to human A431 cells relative to control; assay type: functional, organism-based; settings: A-431
[2] = test system: Human immunodeficiency virus 1; assay: Inhibition of HIV1 LAI binding to human Caco-2 cells relative to control; assay type: functional, organism-based
[3] = test system: Human immunodeficiency virus 1; assay: Inhibition of HIV1 BaL binding to human Caco-2 cells relative to control; assay type: functional, organism-based
[4] = test system: Human immunodeficiency virus 1; assay: Inhibition of HIV1 LAI binding to human A431 cells relative to control; assay type: functional, organism-based; settings: A-431
[5] = test system: Human immunodeficiency virus 1; assay: Antiviral activity against HIV1 BaL assessed as logReduction in viral transmission from human A431 cells to human PBMC by ELISA; assay type: functional

In the case of CC(C)=CCOc1cc(NC(=S)c2ccoc2C)ccc1Cl [UC 781], the Activity [1] is reported as “inactive”, the Activity [2] is reported as “inactive” and the Activity [3] is reported as “inactive”. For the same compound, the Activity [4] was “inactive” and the Activity [5] was 6.1.
